From patent US20040143012A1, “Method for stabilising particle size distribution of powder active principle dispersed in a liquid and uses thereof” (priority 2000, published 2004)
Values joined by “and” are separate entries in the source; they are usually repeats but may differ in a detail not shown here. Equal values may be shown once. Read-outs that look alike come from different tables or passages of the source.

How the values were obtained:
[1] = Particle size analysis of isotretinoin powder by laser scattering granulometer, before and after dispersion in liquid media; format: physicochemical
Experimental: The ability of glycol ethers to stabilize the particle size of an active principle was established by means of studies aimed at comparing the particle size of an isotretinoin powder supposed to have, according to its supplier, a median of 20 μm, before and after dispersion in 5 different liquid media consisting, respectively, of:
The particle size of the isotretinoin powder before dispersion in the liquid media, ie in dry form, was analyzed on samples of 2 g of powder (the vehicle in this case being compressed air), whereas its particle size after dispersion in the various liquid media was analyzed on samples of 20 ml containing 2% (w/v) of this powder, except in the case of the oily mixture, in which the content of isotretinoin powder in the samples was 6.5% (w/v).
All the particle size analyses were carried out using a Mastersizer Banc Long laser scattering granulometer (Malvern Instruments Ltd company) and an MS1 sampler from the same company.

[2] = isotretinoin powder, supplier's statement; cited from earlier work
[3] = oral, cited from earlier work

Row | Median of the particle size ([1]; after dispersion in Labrafac PG (propylene glycol dicaprylocaprate), 2% (w/v)) [μm] | Median of the particle size ([1]; after dispersion in Labrasol (caprylocapric macrogolglycerides), 2% (w/v)) [μm] | Median of the particle size ([1]; after dispersion in Transcutol (diethylene glycol monoethyl ether, DGME), 2% (w/v)) [μm] | Median of the particle size ([1]; after dispersion in oily mixture of the Roaccutane type (yellow wax, soybean oils, partially hydrogenated plant oil, medium-chain triglyceride), 6.5% (w/v)) [μm] | Median of the particle size ([1]; isotretinoin powder in dry form, before dispersion (2 g samples, compressed air)) | Structure (SMILES) | Median particle size according to supplier [2] [μm] | bioavailability ([3]; soft capsules (Roaccutane), suspension in oily vehicle) | bioavailability ([3]; gel capsules of 10 and 25 mg, on average) [%]
1 | 193.15 | 139.77 | 20.86 | 82.92 | 20 μm and 19.49 μm | CC1=C(/C=C/C(C)=C/C=C/C(C)=C\C(=O)O)C(C)(C)CCC1 [isotretinoin, 13-cis-retinoic acid] | 20 | about 25% | –
2 | – | – | – | – | – | COc1cc(C)c(/C=C/C(C)=C/C=C/C(C)=C/C(=O)O)c(C)c1C [acitretin] | – | – | 60
